Laboratory results as given in patent US20220033432A1, “ANTI-HEPATITIS B VIRUS AGENT” (priority 2019, published 2022).
Like-named read-outs stand apart in the source and are kept apart here.

Key:
[1] = Cytotoxicity test (WST-1) in HepG2 NTCP-myc cells; format: cell-based; settings: human, 7 days culture, read-out: CC50 (50% cytotoxic concentration)
Description: HepG2 NTCP-myc cells were seeded at a concentration of 2×10^4 cells/well. 24 hours later, the compound of Example 1 was diluted to have a concentration of 0, 0.49, 0.97, 1.95, 3.90, 7.81, 15.6, 31.3, 62.5, 125, 250, 500, and 1000 nM, and added to the cells. The HepG2 NTCP-myc cells were cultured for 7 days. After the culture, 10 μl of Premix WST-1 Cell Proliferation Assay System (TaKaRa) was added, and the cells were cultured at 37° C. for 2 hours. Thereafter, absorbance was determined at 450 nm using a microplate reader.
The CC50 (50% cytotoxic concentration) was calculated from a graph showing the relationship between the concentration of the compound and cytotoxicity.

HBV = test: Anti-HBV activity: intracellular HBV DNA by quantitative PCR in HepG2.2.15 cells; format: cell-based; settings: Hepatitis B virus, read-out: EC50 (50% effective concentration), anti-HBV activity
Description: Anti-HBV activity was evaluated by quantitative PCR for determining the amount of HBV DNA in cells on the seventh day after the addition of the agent, using the HepG2.2.15 cell line of HBV-producing cells obtained by introducing a gene having a length twice that of the HBV genome into the human liver cancer cell line HepG2. For PCR of HBV DNA, a forward primer (HBV-S190F; 5′-GCT CGT OTT ACA GGC GGG-3′: SEQ ID NO: 1) and a reverse primer (HBV-S703R; 5′-GAA CCA CTG AAC AAA TOG CAC TAG TA-3′: SEQ ID NO: 2) were used. PCR was performed by carrying out a reaction at 95° C. for 10 sec, 62° C. for 10 sec, and 72° C. for 30 sec for 35 cycles.
Specifically, HepG2.2.15 cells were seeded at a concentration of 1×10^5 cells/well. 24 hours later, the compounds of Example 1 and Comparative Example 1 were diluted to have a concentration of 0, 0.49, 0.97, 1.95, 3.90, 7.81, 15.6, 31.3, 62.5, 125, 250, 500, and 1000 nM, and added to the cells. After the cells were cultured for 7 days, each cytoplasmic compartment was collected, and DNA was purified by phenol-chloroform extraction. 20 ng of the purified DNA was used to measure the amount of intracellular HBV DNA by quantitative PCR.
The EC50 (50% effective concentration) was calculated from a graph showing the relationship between the concentration of the compound and anti-HBV activity.

[2] = 168 h, HepG2.2.15 cells, intracellular HBV DNA, day 7 after addition

## N#Cc1nc(N)nc2c1ncn2[C@@H]1O[C@H](CO)C(O)C1F (stereo partly drawn) [Example 6, 9-(2′-deoxy-2′-fluoro-β-D-arabinofuranos-1′-yl)-2-amino-6-cyanopurine]
[1]
  CC50 at 7 days: > 500 µM
HBV; [2]
  EC50: 930 nM

## OC[C@H]1O[C@@H](n2cnc3c(Cl)nc(Cl)nc32)[C@@H](F)[C@@H]1O [Comparative Example 1, 2,6-dichloro-9-((2R,3S,4R,5R)-3-fluoro-4-hydroxy-5-(hydroxymethyl)tetrahydrofuran-2-yl)-9H-purine, reference compound]
HBV; [2]
  EC50: > 10000 nM

## Nc1nc(Cl)c2ncn([C@@H]3O[C@H](CO)C(O)C3F)c2n1 (stereo partly drawn) [Example 1, 9-(2′-deoxy-2′-fluoro-β-D-arabinofuranos-1′-yl)-2-amino-6-chloropurine]
[1]
  CC50 at 7 days: > 500 µM
HBV; [2]
  EC50: 11.8 nM

## COc1nc(N)nc2c1ncn2[C@@H]1O[C@H](CO)C(O)C1F (stereo partly drawn) [Example 5, 9-(2′-deoxy-2′-fluoro-β-D-arabinofuranos-1′-yl)-2-amino-6-methoxypurine]
[1]
  CC50 at 7 days: > 500 µM
HBV; [2]
  EC50: 1630 nM

## Nc1nc(I)c2ncn([C@@H]3O[C@H](CO)C(O)C3F)c2n1 (stereo partly drawn) [Example 3, 9-(2′-deoxy-2′-fluoro-β-D-arabinofuranos-1′-yl)-2-amino-6-]
[1]
  CC50 at 7 days: > 500 µM
HBV; [2]
  EC50: 990 nM

## Nc1nc(N)c2ncn([C@@H]3O[C@H](CO)C(O)C3F)c2n1 (stereo partly drawn) [Example 4, 9-(2′-deoxy-2′-fluoro-β-D-arabinofuranos-1′-yl)-2-amino-6-aminopurine]
[1]
  CC50 at 7 days: > 500 µM
HBV; HepG2.2.15, 168 h
  EC50: 2020 nM

## Nc1nc(F)c2ncn([C@@H]3O[C@H](CO)C(O)C3F)c2n1 (stereo partly drawn) [Example 2, 9-(2′-deoxy-2′-fluoro-β-D-arabinofuranos-1′-yl)-2-amino-6-fluoropurine]
[1]
  CC50 at 7 days: 337 µM
HBV; [2]
  EC50: 880 nM
